Laboratory results as given in article PMC8040520 (ACS chemical biology, 2020).

Test system: BolI
Assay: steady-state kinetics, CoA production
Format: biochemical, Bradyrhizobium oligotrophicum
Settings: co-substrate SAM presumed; details in supplement

Which Km does the source give for `CC(C)(COP(=O)(O)OP(=O)(O)OC[C@H]1O[C@@H](n2cnc3c(N)ncnc32)[C@H](O)[C@@H]1OP(=O)(O)O)[C@@H](O)C(=O)NCCC(=O)NCCSC(=O)/C=C/c1ccccc1` [cinnamoyl-CoA] here?
Its Km is 3000 nM.
